Patent publication US11464779B2, “Pharmaceutical formulation of palbociclib and a preparation method thereof” (Shenzhen Pharmacin Co., Ltd., priority 2016, dated 2022)

Assays:
[1] = according to WO2005/005426; cited from earlier work
[2] = dynamic solubility test in buffer at pH 6.0 with stirring; format: physicochemical; conditions: phosphate buffer pH 6.0, stirring for 60 minutes
Description: 62.5 mg of the solid dispersion prepared in Example 3 (containing 12.5 mg of the API of palbociclib in proportion) and 12.5 mg of the API of palbociclib were weighed separately, placed into two 100 ml beakers, respectively, and marked with T1 and T2. 90 ml of phosphate buffer (pH 6.0) was added to the two beakers respectively and a magnetic stir bar was placed therein. The two beakers were placed on a magnetic stirrer separately. 1 ml of the solution was removed separately from each of the beakers at the time points of 5, 10, 20, 40, and 60 minutes and filtered through a 0.45 μm micro PES polyethersulfone filter membrane. The filtrate was analyzed by high performance liquid chromatography, the content of the API of palbociclib was determined and the dissolution percentage was calculated.

[3] = co-dissolution of API of palbociclib and acidic auxiliary material in a solvent; format: physicochemical; conditions: co-dissolved with pharmaceutically acceptable acidic auxiliary material; solvent e.g. water
Description: The present invention also provides a method for the preparation of a solid dispersion, comprising: mixing palbociclib with an acidic auxiliary material; adding a solvent (including but not limited to water, ethanol, acetone and a mixture thereof, preferably water or a mixture thereof with other solvents, e.g. the mixture of water and ethanol, the mixture of water and acetone, etc.) for dissolving or dispersing; adding a hydrophilic high-molecular material, dissolving or dispersing evenly; and removing the solvent by heating, for example, evaporating the solvent to dry by vacuum drying or heating drying or freeze drying or other drying ways, in order to achieve the purpose of dispersing the drug in the high-molecular solid carrier to a high degree, so as to prepare the solid dispersion.
In the preparation of the solid dispersion of the present invention, the concentration of the API of palbociclib in the solvent (e.g., water) can be up to 50 mg/ml or more, thereby improving the preparation efficiency of the solid dispersion.

Compound: CC(=O)c1c(C)c2cnc(Nc3ccc(N4CCNCC4)cn3)nc2n(C2CCCC2)c1=O [API of palbociclib, palbociclib]
- solubility in water [1]: poor
- dynamic solubility (dissolution percentage) [2]: 58%
- concentration of the API of palbociclib in the solvent [3]: ≥ 50000 µg/mL
